The numbers were not newly measured in patent US20060004050A1, “Compositions and methods for the prevention or treatment of pain and other nervous system disorders” (priority 2004, published 2006), which cites them from elsewhere.

In data set [1] the test system is spinal cord and descending neural pathways. As to conditions: rats.
The conditions of data set [2]: in vivo.
In data set [3] the test system is spinal nerve root action potentials. As to conditions: cats.
The test system of data set [4] is calcium current of snail neurons.
The conditions of data set [5]: in vivo. This is another data set of the same source.
For data set [6] the following is noted: rat.
A further data set has as its system beta-adrenergic. Conditions: L-form versus D-enantiomer.

Take `Cc1ccc(C(=O)C(C)CN2CCCCC2)cc1` (racemic) [Tolperisone, 2,4′-dimethyl-3-piperidino-propiophenone]: the “effect on segmental (limb) reflexes” value in data set [1] is given as “depress segmental (limb) reflexes”. Moreover, in data set [2], the “most serious adverse effect” value was “anaphylaxis”; the “other frequently reported adverse effects” value was “muscle weakness, muscle pain, headache, dizziness, and gastric complaints”. The “effect on ventral nerve root reflexes and dorsal nerve root reflex” value in data set [3] is “dose-dependently inhibit both ventral nerve root reflexes and the dorsal nerve root reflex”. For the same compound, the “effect on calcium current” value in data set [4] is listed as “inhibit calcium current dose-dependently”. For the same compound, the membrane effect entry in the data set with tissue membrane is recorded as “tissue membrane stabilizing properties”. Turning to `O=C1CCC(N2C(=O)c3ccccc3C2=O)C(=O)N1` (single isomer, unassigned) [D-enantiomer of thalidomide, thalidomide], the “effect when prescribed for morning sickness during pregnancy” value in data set [5] is “safe and effective sedative”. Take `O=C1CCC(N2C(=O)c3ccccc3C2=O)C(=O)N1` (single isomer, unassigned) [L-enantiomer of thalidomide, thalidomide]: the “effect when prescribed for morning sickness during pregnancy” value in data set [5] was “potent teratogen”. For the compound `Cc1ccc(C(=O)C(C)CN2CCCCC2)cc1` (single isomer, unassigned; (+)) [(+)-tolperisone], the “pharmacodynamic property of the isomer” value in data set [6] was “more muscle-relaxant properties”. Turning to `Cc1ccc(C(=O)C(C)CN2CCCCC2)cc1` (single isomer, unassigned; (-)) [(−)-tolperisone], in data set [6], the “pharmacodynamic property of the isomer” value is recorded as “vasodilatory activity”. For the compound `CC(C)NCC(O)COc1cccc2ccccc12` (centres unmarked) [propranolol], the “potency relative to the D-enantiomer” value in the data set on beta-adrenergic is on record as 100 times.
